The test system of series [1] is G361 cells. Description: DNA damage and apoptotic cell death by immunoblotting analysis. The class given is cell-based, human. The settings on record: 24 h. Here is the method: To confirm DNA damage caused by a combination of compound 3g and irradiation in G361 cells, phosphorylation of histone H2A.X at Ser-139 (γH2A.X), which is a well-accepted marker of DNA damage, was evaluated using immunoblotting analysis (FIG. 2). The cells were treated with different doses (0.1, 0.3 or 1.1 μM) of compound 3g for 4 h, then either kept in dark or exposed to light with a total irradiation dose of 10 J/cm^2 and cultivated for subsequent 24 h. After this period, the cells were harvested and analyzed by immunoblotting.
The cell lysates were prepared in RIPA buffer. Equal protein amounts were loaded and separated on SDS-polyacrylamide gels, electroblotted onto nitrocellulose membranes and after blocking, overnight incubation with specific primary antibodies and incubation with peroxidase-conjugated secondary antibodies, the peroxidase activity was detected with SuperSignal West Pico reagents (Thermo Scientific) using a CCD camera LAS-4000 (Fujifilm). All primary antibodies were diluted in TBS containing 4% BSA and 0.1% Tween 20. The specific antibodies were purchased from Cell Signaling (anti-PARP-1, clone 46D11; anti-caspase 7; HRP-linked secondary antibodies), Santa Cruz Biotechnology (anti-β-actin, clone C4), Millipore (anti-phospho-histone H2A.X, Ser139, clone JBW301).
The cleavage of PARP-1, an enzyme involved in DNA repair, which gets cut and inactivated by caspases during apoptotic cell death, was also apparent when combining said concentration and irradiation dose. […] It confirms that the above observation is a consequence of a photodynamic effect.
For orientation: In western blotting, separated proteins are transferred to a membrane and probed.

The nature of series [2]: Absorption and fluorescence properties in water. The class given is physicochemical. The method, then:
To determine the wavelength of light, at which 1,1-dimethyl-2-[(E)-2-phenylethenyl]-1H-benzo[e]indole derivatives should be irradiated for the investigation of their photodynamic activity, the absorption and fluorescence properties thereof were measured in water. The excitation wavelength λex was set to 380 nm. Based on the results an in-house constructed LED based light source specifically designed for the irradiation of 96-well microplates and Petri dishes (Tomecka et al., CZ302829B6, 2006) was chosen, with a maximal wavelength emission of 414 nm and light intensity set to 20 mW/cm^2.

In series [3] the test system is G361 cells (human skin melanoma). Description: MTT cell viability assay with photodynamic treatment. The class given is cell-based. Here is the method:
(§1) For photodynamic treatments, G361 cells (human skin melanoma) were cultivated in DMEM medium without phenol red supplemented with 10% fetal bovine serum, 100 U/mL penicillin, 100 μg/mL streptomycin, 2 mM glutamine, at 37° C. in 5% CO2 atmosphere. Cells were treated with test compounds and after 4 h were irradiated (the maximal wavelength emission of 414 nm and different total doses up to 10 J/cm^2). Further cultivation lasted for subsequent 16, 24 or 72 h.
Cell viability (EC50) was determined using the MTT (Sigma-Aldrich) assay in 96-well microplates. Cells were seeded, next day treated with test compounds for 4 h and subsequently irradiated (the maximal wavelength emission of 414 nm and total dose of 2.5 and 10 J/cm^2). After irradiation, the cells were incubated for further 72 h and then the MTT solution was added. Cells were incubated for another 4 h at 37° C. and then the 0.1% SDS was added to the wells to solubilize the violet formazan crystals. The measurement of absorbance was carried out on reader Tecan Infinite M200Pro at 570 nm. Dark viability was measured in parallel under the same conditions without irradiation.
(In general: Tetrazolium assays rely on reduction of a dye to a coloured formazan, in cell work by metabolically active cells.)

Series [4] relates to G361 cells. Description: Flow cytometric detection of cell death (sub-G1 populations). It is filed as cell-based, human. The settings on record: for number of cells in sub-G1 population: G361 cells. The method, then:
as §1
Asynchronous cells were seeded and, after a pre-incubation period, treated with compound 3g for 4 h, irradiated and after further 24 h of incubation, samples were fixed and stained with propidium iodide. DNA content was analyzed by flow cytometry using a 488 nm laser (BD FACS Verse with software BD FACSuite™, version 1.0.6.) and cell cycle distribution was analyzed using ModFit LT (Verity Software House).
Background: A flow cytometer gives signals particle by particle.

Series [5] relates to caspases 3 and 7. Description: Caspase-3/7 assay. The settings on record: G361 cells; 1.1 μM+10 J/cm^2. It is filed as cell-based, human. Here is the method: The cell lysates were incubated for 4 h with 100 μM Ac-DEVD-AMC (the substrate of caspases 3 and 7) in the assay buffer (25 mM PIPES, 2 mM EGTA, 2 mM MgCl2, 5 mM DTT, pH 7.3). The fluorescence of the product was measured using a Fluoroskan Ascent microplate reader (Labsystems) at 355/460 nm (excitation/emission).
To confirm apoptosis as a mechanism of cell death, activity of pro-apoptotic caspases 3 and 7, which are involved in mediating cell death signalling transduction, was quantified upon treatment with compound 3g and light irradiation (FIG. 1).

Series [6] concerns G361 cells. Description: Evaluation of cellular viability by microscopy (propidium iodide staining). It is filed as cell-based, human. The note with it: 1.1 μM+10 J/cm^2, 16 h after irradiation. Here is the method: G361 cells were treated with compound 3g, 4 h later irradiated with 10 J/cm^2 and further cultivated for 16 h. Control cells were treated with the same compound without irradiation. After the incubation period, cells were stained with propidium iodide (final concentration 10 μg/mL) to evaluate their viability by fluorescence microscopy. In parallel, the morphology of treated cells was evaluated by light microscopy. Experiment clearly confirmed the ability of compound 3g to affect cellular viability after light irradiation in dose-dependent manner as shown by positive propidium iodide staining (>95% of analyzed cells at 1.1 μM of compound 3g+10 J/cm^2) as well as significant morphological changes reflecting ongoing cellular death (FIG. 3).

Structures are written as SMILES. Where two headings read alike, the source gives them in different places. Where only a bound is given, the exact number is not on record here.

Experimental findings from patent US12503437B2, “1,1-dimethyl-2-[(E)-2-phenylethenyl]-1H-benzo[e]indole derivatives and uses thereof” (Kaunas University of Technology, priority 2023, dated 2025) are described below.

`CC1(C)C(/C=C/c2ccc(C#N)c(F)c2)=Nc2ccc3ccccc3c21` [Compound 3g, 4-[(E)-2-(1,1-Dimethyl-1H-benzo[e]indol-2-yl)ethenyl]-2-fluorobenzonitrile]: the “H2A.X phosphorylation (Ser-139, γH2A.X)” value in series [1] (G361 cells kept in the dark, 0.1, 0.3 or 1.1 μM) is recorded as “did not show any H2A.X phosphorylation”. Further, the “H2A.X phosphorylation (Ser-139, γH2A.X) level” value in series [1] (G361 cells, 1.1 μM+10 J/cm^2) is “massive increase”. For the same compound, the “cleavage of PARP-1” value in series [1] (G361 cells, 1.1 μM+10 J/cm^2) was “apparent”. The “caspase 7 cleavage” value in series [1] (G361 cells, treated and irradiated (10 J/cm^2)) is listed as “cleavage activation of caspase 7”. In addition, the Stokes shift in series [2] worked out at 102 nm. The compound further yielded a λabs in series [2] of 433 nm. This compound also yielded a λem in series [2] (excitation wavelength 380 nm) of 535 nm. Moreover, the EC50 was 7.6 ± 0.9 µM in series [3] (G-361, G361 cells, light energy: Dark (Table 4), read-out: EC50 ± SD); 6.2 µM in series [3] (G-361, dark kept G361 cells, 4 h treatment, further 72 h, MTT, read-out: G361 - EC50, Dark); 1.2 ± 0.3 µM in series [3] (G-361, light or radiation study, G361 cells, light energy 2.5 J/cm^2 (Table 4), read-out: EC50 ± SD); 0.7 ± 0.1 µM in series [3] (G-361, light or radiation study, G361 cells, light energy 10 J/cm^2 (Table 4), read-out: EC50 ± SD); 0.6 µM in series [3] (G-361, light or radiation study, light irradiated (414 nm, 10 J/cm^2) G361 cells, 4 h treatment, irradiation, further 72 h, MTT, read-out: G361 - EC50, 10 J/cm^2). Besides, the “number of cells in sub-G1 population” value is reported as 0 (number of cells in sub-G1 population <10% (0)) in series [4] (0.3 μM, 1.1 J/cm^2, 24 h after irradiation); 0 (number of cells in sub-G1 population <10% (0)) in series [4] (0.3 μM, 3.3 J/cm^2, 24 h after irradiation); 0 (number of cells in sub-G1 population <10% (0)) in series [4] (0.3 μM, Dark, 24 h); 0 (number of cells in sub-G1 population <10% (0)) in series [4] (1.1 μM, 1.1 J/cm^2, 24 h after irradiation); “+ (10-50% (+))” in series [4] (1.1 μM, 3.3 J/cm^2, 24 h after irradiation); 0 (number of cells in sub-G1 population <10% (0)) in series [4] (1.1 μM, Dark, 24 h). The “number of cells in sub-G1 population” value in series [4] (3.3 μM, 1.1 J/cm^2, 24 h after irradiation) was “+ (10-50% (+))”; in series [4] (3.3 μM, 3.3 J/cm^2, 24 h after irradiation), “++ (>50% (++))”; in series [4] (3.3 μM, Dark, 24 h), 0 (number of cells in sub-G1 population <10% (0)). Moreover, the “sub-diploid (sub-G1) populations” value in series [4] (treated and irradiated G361 cells, concentration and light irradiation dependent) is on record as “increase”. In series [5], the “capacity to induce apoptosis (caspase 3/7 activity)” value is “clearly apparent”. Besides, the “positive propidium iodide staining” value in series [6] is given as > 95 % of analyzed cells.
